Measured values reported in ChEMBL document CHEMBL6087431, “Discovery of a selective and potent inhibitor of c-Jun N-terminal kinase 1 with anti-pulmonary fibrosis effect” (Bioorg Med Chem Lett, 2025).
Activity calls are given as the source filed them. The rule behind the calls is not given here.

What was measured:
[1] = biological target: T1, Mitogen-activated protein kinase 8 (Homo sapiens, UniProt P45983); details: dose 2.0 nM
[2] = biological target: T1, Mitogen-activated protein kinase 8; assay: Inhibition of JNK1 (unknown origin)
[3] = biological target: Mitogen-activated protein kinase 9 (Homo sapiens, UniProt P45984); assay: Inhibition of JNK2 (unknown origin)
[4] = biological target: T1, Mitogen-activated protein kinase 8; details: dose 10.0 nM
A549 [5] = assay: Anti-fibrotic activity in human A549 cells assessed as reduction in TGFbeta1-induced c-Jun expression at 0.3 uM by Western blot analysis; assay type: functional, cell-based
A549 [6] = assay: Anti-fibrotic activity in human A549 cells assessed as reduction in TGFbeta1-induced fibronectin expression at 0.3 uM by Western blot analysis; assay type: functional, cell-based

Mitogen-activated protein kinase 9, sequence (P45984 whole entry): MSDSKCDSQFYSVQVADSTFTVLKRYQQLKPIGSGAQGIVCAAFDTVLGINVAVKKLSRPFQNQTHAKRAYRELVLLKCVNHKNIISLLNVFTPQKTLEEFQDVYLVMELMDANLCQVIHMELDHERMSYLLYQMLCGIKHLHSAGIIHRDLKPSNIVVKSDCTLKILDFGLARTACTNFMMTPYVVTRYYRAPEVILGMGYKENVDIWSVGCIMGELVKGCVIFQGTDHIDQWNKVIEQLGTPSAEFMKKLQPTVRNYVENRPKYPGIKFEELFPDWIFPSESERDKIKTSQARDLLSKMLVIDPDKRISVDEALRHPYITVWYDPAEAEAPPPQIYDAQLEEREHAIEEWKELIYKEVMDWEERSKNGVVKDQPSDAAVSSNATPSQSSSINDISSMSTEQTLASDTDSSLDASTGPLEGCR
T1 sequence (P45983 whole entry): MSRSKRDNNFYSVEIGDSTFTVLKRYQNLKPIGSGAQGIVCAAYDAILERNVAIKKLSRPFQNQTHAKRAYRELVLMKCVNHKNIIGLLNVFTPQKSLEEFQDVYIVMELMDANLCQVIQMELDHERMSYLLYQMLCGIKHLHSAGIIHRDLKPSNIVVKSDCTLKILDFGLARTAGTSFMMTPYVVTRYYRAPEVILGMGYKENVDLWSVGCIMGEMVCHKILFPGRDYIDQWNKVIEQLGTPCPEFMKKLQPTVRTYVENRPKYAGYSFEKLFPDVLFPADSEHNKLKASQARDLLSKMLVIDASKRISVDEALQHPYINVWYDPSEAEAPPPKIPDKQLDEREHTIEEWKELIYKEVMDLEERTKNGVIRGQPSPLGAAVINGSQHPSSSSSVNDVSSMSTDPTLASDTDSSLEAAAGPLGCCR

**Q.** Which inhibition [1] does the source give for `NC(=O)c1ccccc1Nc1nc(Nc2ccc(C(=O)N3CCC4(CCNCC4)CC3)cc2)ncc1Br` here?
**A.** The inhibition was 33.2%.

**Q.** For `NC(=O)c1ccccc1Nc1nc(Nc2ccc(C(=O)N3CC4CCC(C3)N4)cc2)ncc1Br`, which inhibition [1] is on record?
**A.** The inhibition was 45.1%.

**Q.** With `NC(=O)c1ccccc1Nc1nc(Nc2ccc(C(=O)N3C4CCC3COC4)cc2)ncc1Br` as the molecule, how does the inhibition [1] read?
**A.** Its inhibition is 46.3%.

**Q.** How did the inhibition [1] turn out when `NC(=O)c1ccccc1Nc1nc(Nc2ccc(C(=O)N3C4CCC3CNC4)cc2)ncc1Br` was run?
**A.** Its inhibition is 34.4%.

**Q.** For `NC(=O)c1ccccc1Nc1nc(Nc2ccc(C(=O)N3CCC4(CCNC4)CC3)cc2)ncc1Br`, which inhibition [1] is on record?
**A.** Its inhibition is 49.9%.

**Q.** `NC(=O)c1ccccc1Nc1nc(Nc2ccc(C(=O)N3CC4CC(C3)O4)cc2)ncc1Br` was tested. Which inhibition [1] did it give?
**A.** Its inhibition is 10.8%.

**Q.** For `NC(=O)c1ccccc1Nc1nc(Nc2ccc(C(=O)N3CCC4(CC3)OCCO4)cc2)ncc1Br`, which inhibition [1] is on record?
**A.** The inhibition was 15%.

**Q.** How did the inhibition [1] turn out when `CN1C[C@H]2C[C@@H]1CN2C(=O)c1ccc(Nc2ncc(Br)c(Nc3ccccc3C(N)=O)n2)cc1` was run?
**A.** The inhibition was 49.3%.

**Q.** Which results are given for `NC(=O)c1ccccc1Nc1nc(Nc2ccccc2)ncc1Br`?
**A.** IC50 [2]: 3 nM; IC50 [3]: 9.4 nM; inhibition [4]: 62.1%; inhibition [1]: 18.1%

**Q.** `NC(=O)c1ccccc1Nc1nc(Nc2ccc(C(=O)N3CC4CC3CO4)cc2)ncc1Br` (stereo not drawn) was tested. Which IC50 [2] did it give?
**A.** Its IC50 is 0.8 nM.

**Q.** What about the IC50 [3] of the same molecule?
**A.** The IC50 was 8.3 nM.

**Q.** And the Activity (A549 [5])?
**A.** The Activity was “Active”.

**Q.** What about the Activity (A549 [6]) of the same molecule?
**A.** The Activity was “Active”.

**Q.** What about the inhibition [1] of the same molecule?
**A.** Its inhibition is 76.1%.

**Q.** For `NC(=O)c1ccccc1Nc1nc(Nc2ccc(C(=O)N3CCC4(CCCC4)CC3)cc2)ncc1Br`, which inhibition [1] is on record?
**A.** The inhibition was “inactive”.

**Q.** How did the inhibition [1] turn out when `NC(=O)c1ccccc1Nc1nc(Nc2ccc(C(=O)N3CCC4(CCCCC4)CC3)cc2)ncc1Br` was run?
**A.** Its inhibition is “inactive”.

**Q.** `NC(=O)c1ccccc1Nc1nc(Nc2ccc(C(=O)N3CCC4(CCCO4)CC3)cc2)ncc1Br` was tested. Which inhibition [1] did it give?
**A.** The inhibition was 47.6%.

**Q.** What does the source list for `NC(=O)c1ccccc1Nc1nc(Nc2ccc(C(=O)N3CCC4(CCOC4)CC3)cc2)ncc1Br`?
**A.** IC50 [2]: 1.4 nM; IC50 [3]: 7.4 nM; inhibition [1]: 60.4%

**Q.** Which results are given for `CN1CC2CCC(C1)N2C(=O)c1ccc(Nc2ncc(Br)c(Nc3ccccc3C(N)=O)n2)cc1`?
**A.** IC50 [2]: 1.5 nM; IC50 [3]: 12.6 nM; inhibition [1]: 56.6%

**Q.** Which inhibition [1] does the source give for `NC(=O)c1ccccc1Nc1nc(Nc2ccc(C(=O)N3C[C@H]4C[C@@H]3CN4)cc2)ncc1Br` here?
**A.** Its inhibition is 51.3%.

**Q.** For `NC(=O)c1ccccc1Nc1nc(Nc2ccc(C(=O)N3CCC4(CCOCC4)CC3)cc2)ncc1Br`, which inhibition [1] is on record?
**A.** Its inhibition is 46.8%.
